Test [1] has as its system eIF2α in HEK293-EGFP-eIF2α cells. The test can be described thus: PERK Cellular Assay (HEK293-EGFP-eIF2α cells, tunicamycin-induced ER stress, TR-FRET). The conditions noted are these: tunicamycin 2 hours. Type of test: cell-based. In a few lines: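 After 2 h tunicamycin ([…]) stress following 30 min compound pretreatment at 37 °C, lysed HEK293-EGFP-eIF2α cells were read by TR-FRET. IC50 derived by 4-parameter logistic fitting of percent inhibition, DMSO-normalized, from 10-point 3-fold dilutions.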
Background: In TR-FRET formats the signal depends on donor and acceptor labels being close together.

Test [2] addresses Recombinant human EIF2AK3 (PERK) catalytic domain (amino acids 536-1116) (Homo sapiens (Human), UniProt Q9NZJ5). The test can be described thus: PERK In Vitro Activity Assay (isolated), TR-FRET kinase assay. The conditions noted are these: isolated PERK enzyme, 1.5 μM ATP, read-out: Biochemical IC50. The essentials: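 IC50 values come from 4-parameter logistic fits of TR-FRET ratios, read after 90 min with 2 nM terbium-labelled phospho-eIF2a antibody following an EDTA stop (10 mM final). The kinase reaction ran 45 min at room temperature, started by adding PERK catalytic domain to 100–200 nM GFP-eIF2a in HEPES pH 7.5 buffer with MgCl2, EGTA and Brij-35.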

This note sets out measurements from patent publication US12331054B2, “Perk inhibiting imidazolopyrazine compounds” (HiberCell, Inc., priority 2019, dated 2025).

For orientation: IC50 means the point on the concentration scale where inhibition reaches its midpoint.

Recombinant human EIF2AK3 (PERK) catalytic domain (amino acids 536-1116), sequence (Q9NZJ5 536-1116): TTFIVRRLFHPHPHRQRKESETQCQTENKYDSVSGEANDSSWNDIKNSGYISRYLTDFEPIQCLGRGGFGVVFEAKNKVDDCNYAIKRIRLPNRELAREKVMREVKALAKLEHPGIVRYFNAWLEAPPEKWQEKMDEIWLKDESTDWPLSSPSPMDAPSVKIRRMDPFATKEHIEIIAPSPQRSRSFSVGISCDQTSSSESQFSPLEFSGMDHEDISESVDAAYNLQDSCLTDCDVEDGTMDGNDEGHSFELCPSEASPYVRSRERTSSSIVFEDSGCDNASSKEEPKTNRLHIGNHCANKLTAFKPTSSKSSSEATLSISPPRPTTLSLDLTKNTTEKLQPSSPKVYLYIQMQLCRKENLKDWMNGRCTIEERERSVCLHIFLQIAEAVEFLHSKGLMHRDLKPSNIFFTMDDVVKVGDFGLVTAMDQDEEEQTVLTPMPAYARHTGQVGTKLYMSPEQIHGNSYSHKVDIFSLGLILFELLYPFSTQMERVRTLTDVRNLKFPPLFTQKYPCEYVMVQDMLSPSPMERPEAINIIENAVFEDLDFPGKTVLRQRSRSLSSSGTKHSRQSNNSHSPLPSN

Regarding `[2H]C([2H])([2H])c1nc(-c2ccc(NC(=O)C(O)c3cccc(F)c3)cc2F)c2c(N)ncc(C(F)(F)F)n12` (stereo not drawn) [Example 76, N-[4-[8-amino-3-(trideuteriomethyl)-5-(trifluoromethyl)imidazo[1,5-a]pyrazin-1-yl]-3-fluoro-phenyl]-2-(3-fluorophenyl)-2-hydroxy-acetamide], the IC50 in test [1] and in test [2] was 0.001 to 0.025 µM in each case.

As to `[2H]C([2H])([2H])c1nc(-c2ccc(NC(=O)C(O)c3cccc(F)c3)cc2F)c2c(N)ncc(C(F)(F)F)n12` (stereo not drawn) [Example 77, N-[4-[8-amino-3-(trideuteriomethyl)-5-(trifluoromethyl)imidazo[1,5-a]pyrazin-1-yl]-3-fluoro-phenyl]-2-(3-fluorophenyl)-2-hydroxy-acetamide], the IC50 was in the range of 0.051 to 0.1 µM in test [1] and 0.001 to 0.025 µM in test [2].

As for `Cc1cnc(N)c2c(-c3ccc(NC(=O)C(O)c4cccc(Cl)c4)cc3F)nc(C)n12` (stereo not drawn) [Example 78, N-(4-(8-amino-3,5-dimethylimidazo [1,5-a]pyrazin-1-yl)-3-fluorophenyl)-2-(3-chlorophenyl)-2-hydroxy-acetamide], the IC50 in test [1] (2 h) and in test [2] was 0.001 to 0.025 µM in each case.

`[2H]C([2H])([2H])c1nc(-c2ccc(NC(=O)C(O)c3cccc(Cl)c3)cc2F)c2c(N)nc(C)cn12` (stereo not drawn) [Example 80, N-[4-[8-amino-6-methyl-3-(trideuteriomethyl)imidazo[1,5-a]pyrazin-1-yl]-3-fluoro-phenyl]-2-(3-chlorophenyl)-2-hydroxy-acetamide]: the IC50 in test [1] and in test [2] was 0.001 to 0.025 µM throughout.

With `[2H]C([2H])([2H])c1nc(-c2ccc(NC(=O)C(O)c3cccc(Cl)c3)cc2F)c2c(N)nc(C)cn12` (stereo not drawn) [Example 81, N-[4-[8-amino-6-methyl-3-(trideuteriomethyl)imidazo[1,5-a]pyrazin-1-yl]-3-fluoro-phenyl]-2-(3-chlorophenyl)-2-hydroxy-acetamide], the 50% inhibitory concentration (IC50) in test [1] was 0.101 to 0.25 µM; in test [2], 0.001 to 0.025 µM.

As for `[2H]C([2H])([2H])c1nc(-c2ccc(NC(=O)C(O)c3cccc(Cl)c3)cc2F)c2c(N)ncc(C(F)(F)F)n12` (stereo not drawn) [Example 82, N-[4-[8-amino-3-(trideuteriomethyl)-5-(trifluoromethyl)imidazo[1,5-a]pyrazin-1-yl]-3-fluoro-phenyl]-2-(3-chlorophenyl)-2-hydroxy-acetamide], the IC50 in test [1] and in test [2] was 0.001 to 0.025 µM in each case.

Regarding `[2H]C([2H])([2H])c1nc(-c2ccc(NC(=O)C(O)c3cccc(Cl)c3)cc2F)c2c(N)ncc(C(F)(F)F)n12` (stereo not drawn) [Example 83, N-[4-[8-amino-3-(trideuteriomethyl)-5-(trifluoromethyl)imidazo[1,5-a]pyrazin-1-yl]-3-fluoro-phenyl]-2-(3-chlorophenyl)-2-hydroxy-acetamide], the IC50 in test [1] was in the range of 0.051 to 0.1 µM; in test [2] it was 0.001 to 0.025 µM.

On to `[2H]C([2H])([2H])c1nc(-c2ccc(NC(=O)C(O)c3cccc(Cl)c3)cc2F)c2c(N)ncc(C)n12` (stereo not drawn) [Example 84, N-[4-[8-amino-5-methyl-3-(trideuteriomethyl)imidazo[1,5-a]pyrazin-1-yl]-3-fluoro-phenyl]-2-(3-chlorophenyl)-2-hydroxy-acetamide], for which the half-inhibitory concentration (IC50) in test [1] and in test [2] was 0.001 to 0.025 µM throughout.

`[2H]C([2H])([2H])c1nc(-c2ccc(NC(=O)C(O)c3cccc(Cl)c3)cc2F)c2c(N)ncc(C)n12` (stereo not drawn) [Example 85, N-[4-[8-amino-5-methyl-3-(trideuteriomethyl)imidazo[1,5-a]pyrazin-1-yl]-3-fluoro-phenyl]-2-(3-chlorophenyl)-2-hydroxy-acetamide]: the half-inhibitory concentration (IC50) lay within 0.051 to 0.1 µM in test [1] and 0.001 to 0.025 µM in test [2].

Turning to `Cc1cccc(C(O)C(=O)Nc2ccc(-c3nc(C)n4c(C)cnc(N)c34)c(F)c2)c1` (stereo not drawn) [Example 88, N-(4-(8-amino-3,5-dimethylimidazo [1,5-a]pyrazin-1-yl)-3-fluoro-phenyl)-2-hydroxy-2-(m-tolyl)acetamide], the IC50 in test [1] and in test [2] was 0.001 to 0.025 µM throughout.

Consider `Cc1cccc(C(O)C(=O)Nc2ccc(-c3nc(C)n4c(C)cnc(N)c34)c(F)c2)c1` (stereo not drawn) [Example 89, N-(4-(8-amino-3,5-dimethylimidazo [1,5-a]pyrazin-1-yl)-3-fluoro-phenyl)-2-hydroxy-2-(m-tolyl)acetamide], for which the concentration for half-maximal inhibition (IC50) fell in the range of 0.051 to 0.1 µM in test [1] and 0.001 to 0.025 µM in test [2].

`[2H]C([2H])([2H])c1nc(-c2ccc(NC(=O)C(O)c3cccc(C)c3)cc2F)c2c(N)ncc(C)n12` (stereo not drawn) [Example 90, N-[4-[8-amino-5-methyl-3-(trideuteriomethyl)imidazo[1,5-a]pyrazin-1-yl]-3-fluoro-phenyl]-2-hydroxy-2-(m-tolyl)acetamide]: the IC50 lay in the range of 0.026 to 0.05 µM in test [1] (2 h) and 0.001 to 0.025 µM in test [2].

`[2H]C([2H])([2H])c1nc(-c2ccc(NC(=O)C(O)c3cccc(C)c3)cc2F)c2c(N)ncc(C)n12` (stereo not drawn) [Example 91, N-[4-[8-amino-5-methyl-3-(trideuteriomethyl)imidazo[1,5-a]pyrazin-1-yl]-3-fluoro-phenyl]-2-hydroxy-2-(m-tolyl)acetamide]: the results for the 50% inhibitory concentration (IC50) in test [1] and in test [2] were 0.051 to 0.1 µM and 0.001 to 0.025 µM, respectively.

As for `Cc1cnc(N)c2c(-c3ccc(NC(=O)C(O)c4cccc(C(F)(F)F)c4)cc3F)nc(C)n12` (stereo not drawn) [Example 92, N-(4-(8-amino-3,5-dimethylimidazo [1,5-a]pyrazin-1-yl)-3-fluoro-phenyl)-2-hydroxy-2-(3-(trifluoromethyl)phenyl)acetamide], the IC50 in test [1] and in test [2] was 0.001 to 0.025 µM throughout.

As for `Cc1cnc(N)c2c(-c3ccc(NC(=O)C(O)c4cccc(C(F)(F)F)c4)cc3F)nc(C)n12` (stereo not drawn) [Example 93, N-(4-(8-amino-3,5-dimethylimidazo [1,5-a]pyrazin-1-yl)-3-fluoro-phenyl)-2-hydroxy-2-(3-(trifluoromethyl)phenyl)acetamide], the 50% inhibitory concentration (IC50) was 0.051 to 0.1 µM in test [1] and 0.001 to 0.025 µM in test [2].

With `[2H]C([2H])([2H])c1nc(-c2ccc(NC(=O)C(O)c3cccc(C(F)(F)F)c3)cc2F)c2c(N)ncc(C)n12` (stereo not drawn) [Example 94, N-[4-[8-amino-5-methyl-3-(trideuteriomethyl)imidazo[1,5-a]pyrazin-1-yl]-3-fluoro-phenyl]-2-hydroxy-2-[3-(trifluoromethyl)phenyl]acetamide], the half-maximal inhibitory concentration (IC50) in test [1] and in test [2] was 0.001 to 0.025 µM each time.

In the case of `[2H]C([2H])([2H])c1nc(-c2ccc(NC(=O)C(O)c3cccc(C(F)(F)F)c3)cc2F)c2c(N)ncc(C)n12` (stereo not drawn) [Example 95, N-[4-[8-amino-5-methyl-3-(trideuteriomethyl)imidazo[1,5-a]pyrazin-1-yl]-3-fluoro-phenyl]-2-hydroxy-2-[3-(trifluoromethyl)phenyl]acetamide], the half-inhibitory concentration (IC50) is 0.051 to 0.1 µM in test [1] and 0.001 to 0.025 µM in test [2].

Take `[2H]C([2H])([2H])c1nc(-c2ccc(NC(=O)C(O)c3cccc(C(F)(F)F)c3)cc2F)c2c(N)nc(C)cn12` (stereo not drawn) [Example 96, N-[4-[8-amino-6-methyl-3-(trideuteriomethyl)imidazo[1,5-a]pyrazin-1-yl]-3-fluoro-phenyl]-2-hydroxy-2-[3-(trifluoromethyl)phenyl]acetamide]: the IC50 in test [1] and in test [2] was 0.001 to 0.025 µM throughout.

For `[2H]C([2H])([2H])c1nc(-c2ccc(NC(=O)C(O)c3cccc(C(F)(F)F)c3)cc2F)c2c(N)ncc(C(F)(F)F)n12` (stereo not drawn) [Example 98, N-[4-[8-amino-3-(trideuteriomethyl)-5-(trifluoromethyl)imidazo[1,5-a]pyrazin-1-yl]-3-fluoro-phenyl]-2-hydroxy-2-[3-(trifluoromethyl)phenyl]acetamide], the IC50 was 0.026 to 0.05 µM in test [1] and 0.001 to 0.025 µM in test [2].

Take `[2H]C([2H])([2H])c1nc(-c2ccc(NC(=O)C(O)c3cccc(C(F)(F)F)c3)cc2F)c2c(N)ncc(C(F)(F)F)n12` (stereo not drawn) [Example 99, N-[4-[8-amino-3-(trideuteriomethyl)-5-(trifluoromethyl)imidazo[1,5-a]pyrazin-1-yl]-3-fluoro-phenyl]-2-hydroxy-2-[3-(trifluoromethyl)phenyl]acetamide]: the results for the IC50 in test [1] and in test [2] were 0.101 to 0.25 µM and 0.026 to 0.05 µM, respectively.

Regarding `[2H]C([2H])([2H])c1nc(-c2ccc(NC(=O)C(O)c3cccc(C(F)(F)F)c3)cc2F)c2c(N)ncc(Cl)n12` (stereo not drawn) [Example 100, N-[4-[8-amino-5-chloro-3-(trideuteriomethyl)imidazo[1,5-a]pyrazin-1-yl]-3-fluoro-phenyl]-2-hydroxy-2-[3-(trifluoromethyl)phenyl]acetamide], the half-maximal inhibitory concentration (IC50) in test [1] (2 h) and in test [2] was 0.001 to 0.025 µM in each case.

As to `[2H]C([2H])([2H])c1nc(-c2ccc(NC(=O)C(O)c3cc(F)cc(F)c3)cc2F)c2c(N)nc(C)cn12` (stereo not drawn) [Example 102, N-[4-[8-amino-6-methyl-3-(trideuteriomethyl)imidazo[1,5-a]pyrazin-1-yl]-3-fluoro-phenyl]-2-(3,5-difluoro-phenyl)-2-hydroxy-acetamide], the IC50 in test [1] and in test [2] was 0.001 to 0.025 µM throughout.

Regarding `[2H]C([2H])([2H])c1nc(-c2ccc(NC(=O)C(O)c3cc(F)cc(F)c3)cc2F)c2c(N)nc(C)cn12` (stereo not drawn) [Example 103, N-[4-[8-amino-6-methyl-3-(trideuteriomethyl)imidazo[1,5-a]pyrazin-1-yl]-3-fluoro-phenyl]-2-(3,5-difluoro-phenyl)-2-hydroxy-acetamide], the IC50 lay within 0.251 to 0.5 µM in test [1] and 0.001 to 0.025 µM in test [2].

For the molecule `[2H]C([2H])([2H])c1nc(-c2ccc(NC(=O)C(O)c3cc(F)cc(F)c3)cc2F)c2c(N)ncc(C)n12` (stereo not drawn) [Example 104, N-[4-[8-amino-5-methyl-3-(trideuteriomethyl)imidazo[1,5-a]pyrazin-1-yl]-3-fluoro-phenyl]-2-(3,5-difluoro-phenyl)-2-hydroxy-acetamide], the concentration for half-maximal inhibition (IC50) in test [1] and in test [2] was 0.001 to 0.025 µM each time.
